Data published in PMC8518639 (Chemmedchem, 2021).

Tests used:
[1] = Caco-2 cell permeability assay; format: in vitro ADME; conditions: human; for Papp at 90 min, 10 μM: Caco-2, Papp
Caco‐2 cells = experiment: Caco-2 cell permeability assay; format: in vitro ADME; conditions: Caco‐2, 10 μM
MLL4 complex = MLL4 complex (Homo sapiens, UniProt Q9UMN6); experiment: HotSpot Methyltransferase Profiling assay, MLL4 complex; format: biochemical
SETD2 = SETD2 (Homo sapiens, UniProt Q9BYW2); experiment: HotSpot Methyltransferase Profiling assay, SETD2; format: biochemical
Sequence of SETD2 (Q9BYW2 whole entry): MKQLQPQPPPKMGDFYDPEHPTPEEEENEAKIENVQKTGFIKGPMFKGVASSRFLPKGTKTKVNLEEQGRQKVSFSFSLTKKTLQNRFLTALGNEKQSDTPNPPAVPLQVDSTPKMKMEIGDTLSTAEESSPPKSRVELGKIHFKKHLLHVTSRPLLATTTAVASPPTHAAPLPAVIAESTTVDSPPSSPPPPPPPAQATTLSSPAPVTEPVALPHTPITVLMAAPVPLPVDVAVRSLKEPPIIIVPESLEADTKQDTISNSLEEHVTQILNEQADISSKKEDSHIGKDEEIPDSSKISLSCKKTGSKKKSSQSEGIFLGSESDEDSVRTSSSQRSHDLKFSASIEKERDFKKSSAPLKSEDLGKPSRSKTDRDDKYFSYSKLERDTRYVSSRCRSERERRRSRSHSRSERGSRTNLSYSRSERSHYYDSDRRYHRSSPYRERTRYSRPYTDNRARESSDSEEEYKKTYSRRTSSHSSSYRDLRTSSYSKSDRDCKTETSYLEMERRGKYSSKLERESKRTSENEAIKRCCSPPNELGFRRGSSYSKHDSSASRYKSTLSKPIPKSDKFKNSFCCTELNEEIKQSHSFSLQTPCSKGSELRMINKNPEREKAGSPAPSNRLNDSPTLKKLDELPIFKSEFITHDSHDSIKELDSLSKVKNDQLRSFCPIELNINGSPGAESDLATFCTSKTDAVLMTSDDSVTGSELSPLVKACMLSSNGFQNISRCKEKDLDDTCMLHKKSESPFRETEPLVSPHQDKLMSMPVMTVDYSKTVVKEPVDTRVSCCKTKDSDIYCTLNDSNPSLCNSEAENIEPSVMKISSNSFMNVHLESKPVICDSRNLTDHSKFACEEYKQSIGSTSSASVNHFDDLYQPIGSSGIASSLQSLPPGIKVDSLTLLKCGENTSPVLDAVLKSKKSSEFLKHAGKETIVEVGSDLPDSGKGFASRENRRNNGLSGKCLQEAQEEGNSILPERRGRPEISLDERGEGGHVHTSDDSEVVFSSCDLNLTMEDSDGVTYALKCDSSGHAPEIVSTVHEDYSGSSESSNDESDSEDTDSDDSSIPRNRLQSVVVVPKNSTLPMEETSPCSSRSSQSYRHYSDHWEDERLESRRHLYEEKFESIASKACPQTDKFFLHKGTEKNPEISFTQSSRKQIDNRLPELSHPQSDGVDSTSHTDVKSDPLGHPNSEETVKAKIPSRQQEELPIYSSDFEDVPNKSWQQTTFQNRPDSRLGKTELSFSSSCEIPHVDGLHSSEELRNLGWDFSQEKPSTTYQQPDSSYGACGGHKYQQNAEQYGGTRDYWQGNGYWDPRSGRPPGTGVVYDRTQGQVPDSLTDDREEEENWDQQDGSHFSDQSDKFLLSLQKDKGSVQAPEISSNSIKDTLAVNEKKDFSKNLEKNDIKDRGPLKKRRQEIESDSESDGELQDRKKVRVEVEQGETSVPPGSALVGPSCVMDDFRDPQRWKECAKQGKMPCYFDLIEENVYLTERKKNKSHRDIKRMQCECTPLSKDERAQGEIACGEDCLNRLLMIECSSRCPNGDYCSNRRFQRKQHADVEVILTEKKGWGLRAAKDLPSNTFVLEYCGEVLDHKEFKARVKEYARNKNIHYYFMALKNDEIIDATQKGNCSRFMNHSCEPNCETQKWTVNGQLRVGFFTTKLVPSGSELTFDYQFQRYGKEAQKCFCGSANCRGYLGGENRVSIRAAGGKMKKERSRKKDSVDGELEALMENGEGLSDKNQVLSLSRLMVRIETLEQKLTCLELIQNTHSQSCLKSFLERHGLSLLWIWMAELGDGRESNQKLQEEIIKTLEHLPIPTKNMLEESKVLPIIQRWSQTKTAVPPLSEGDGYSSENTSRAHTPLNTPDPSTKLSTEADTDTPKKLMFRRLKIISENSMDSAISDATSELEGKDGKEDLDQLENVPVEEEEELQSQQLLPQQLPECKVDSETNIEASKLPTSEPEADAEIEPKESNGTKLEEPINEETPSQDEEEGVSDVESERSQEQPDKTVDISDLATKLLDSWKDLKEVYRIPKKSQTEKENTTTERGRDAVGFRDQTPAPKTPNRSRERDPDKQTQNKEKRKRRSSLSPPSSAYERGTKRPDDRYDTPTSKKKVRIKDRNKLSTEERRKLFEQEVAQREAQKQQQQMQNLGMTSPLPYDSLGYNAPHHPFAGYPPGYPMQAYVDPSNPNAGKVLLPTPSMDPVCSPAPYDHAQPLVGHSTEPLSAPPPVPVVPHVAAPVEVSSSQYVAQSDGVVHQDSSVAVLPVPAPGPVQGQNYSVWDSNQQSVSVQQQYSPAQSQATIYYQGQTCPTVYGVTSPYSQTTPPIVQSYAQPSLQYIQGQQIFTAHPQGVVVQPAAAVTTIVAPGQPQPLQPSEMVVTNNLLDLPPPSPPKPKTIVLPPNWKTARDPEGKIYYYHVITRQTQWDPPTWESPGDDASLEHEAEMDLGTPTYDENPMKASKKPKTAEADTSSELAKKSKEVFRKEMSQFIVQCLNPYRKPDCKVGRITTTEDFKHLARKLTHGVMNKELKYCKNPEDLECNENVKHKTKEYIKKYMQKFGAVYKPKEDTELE

PRDM9 = PRDM9 (Homo sapiens, UniProt Q9NQV7); experiment: HotSpot Methyltransferase Profiling assay, PRDM9; format: biochemical
Sequence of PRDM9 (Q9NQV7 whole entry): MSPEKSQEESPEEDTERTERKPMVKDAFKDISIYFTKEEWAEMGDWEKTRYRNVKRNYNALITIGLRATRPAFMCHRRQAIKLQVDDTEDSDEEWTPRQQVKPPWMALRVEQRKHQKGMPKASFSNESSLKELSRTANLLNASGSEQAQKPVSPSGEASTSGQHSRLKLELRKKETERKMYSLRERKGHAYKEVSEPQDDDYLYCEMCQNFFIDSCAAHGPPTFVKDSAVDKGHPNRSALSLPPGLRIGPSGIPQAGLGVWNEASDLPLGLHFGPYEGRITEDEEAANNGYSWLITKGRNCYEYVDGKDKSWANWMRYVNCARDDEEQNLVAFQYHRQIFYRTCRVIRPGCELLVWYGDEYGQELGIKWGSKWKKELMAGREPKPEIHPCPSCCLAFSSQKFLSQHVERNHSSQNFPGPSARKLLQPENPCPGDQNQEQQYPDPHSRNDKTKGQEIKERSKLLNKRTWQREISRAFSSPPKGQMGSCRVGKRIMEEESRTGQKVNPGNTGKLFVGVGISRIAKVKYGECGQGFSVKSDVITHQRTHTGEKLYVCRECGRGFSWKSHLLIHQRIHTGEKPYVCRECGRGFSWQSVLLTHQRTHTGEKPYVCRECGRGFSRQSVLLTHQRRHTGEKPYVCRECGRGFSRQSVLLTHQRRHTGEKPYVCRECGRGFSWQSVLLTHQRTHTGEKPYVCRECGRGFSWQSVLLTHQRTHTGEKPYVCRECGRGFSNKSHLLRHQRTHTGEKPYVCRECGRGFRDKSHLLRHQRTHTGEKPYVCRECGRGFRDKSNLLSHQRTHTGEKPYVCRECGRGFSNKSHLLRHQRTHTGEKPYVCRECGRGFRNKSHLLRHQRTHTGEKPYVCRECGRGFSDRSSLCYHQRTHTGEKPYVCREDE

Sequence of MLL4 complex (Q9UMN6 2490-2715): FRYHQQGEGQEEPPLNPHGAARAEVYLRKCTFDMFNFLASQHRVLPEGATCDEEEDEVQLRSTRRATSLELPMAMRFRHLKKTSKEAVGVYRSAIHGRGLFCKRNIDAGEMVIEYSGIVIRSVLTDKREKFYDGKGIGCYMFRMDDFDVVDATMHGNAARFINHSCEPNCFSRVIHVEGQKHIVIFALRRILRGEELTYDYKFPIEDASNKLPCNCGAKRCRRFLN
Sequence of MLL4 complex (Q9C005 whole entry, further chain): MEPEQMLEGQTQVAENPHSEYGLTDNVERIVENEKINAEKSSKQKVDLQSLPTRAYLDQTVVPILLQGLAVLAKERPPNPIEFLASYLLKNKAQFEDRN
Sequence of MLL4 complex (Q15291 whole entry, further chain): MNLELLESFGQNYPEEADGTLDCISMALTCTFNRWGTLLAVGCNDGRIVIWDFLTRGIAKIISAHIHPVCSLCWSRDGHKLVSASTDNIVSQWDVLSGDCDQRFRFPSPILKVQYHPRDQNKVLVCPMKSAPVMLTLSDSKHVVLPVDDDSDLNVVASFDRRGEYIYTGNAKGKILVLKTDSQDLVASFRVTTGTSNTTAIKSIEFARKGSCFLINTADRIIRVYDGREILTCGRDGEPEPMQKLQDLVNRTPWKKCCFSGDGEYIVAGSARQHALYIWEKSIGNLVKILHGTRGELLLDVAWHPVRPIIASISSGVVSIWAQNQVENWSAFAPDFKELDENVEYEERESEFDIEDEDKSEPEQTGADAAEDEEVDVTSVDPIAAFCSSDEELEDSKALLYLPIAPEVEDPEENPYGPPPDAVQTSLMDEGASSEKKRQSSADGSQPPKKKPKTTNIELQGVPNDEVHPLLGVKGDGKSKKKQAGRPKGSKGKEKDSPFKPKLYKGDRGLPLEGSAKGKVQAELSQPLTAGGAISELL
Sequence of MLL4 complex (Q9UBL3 96-628, further chain): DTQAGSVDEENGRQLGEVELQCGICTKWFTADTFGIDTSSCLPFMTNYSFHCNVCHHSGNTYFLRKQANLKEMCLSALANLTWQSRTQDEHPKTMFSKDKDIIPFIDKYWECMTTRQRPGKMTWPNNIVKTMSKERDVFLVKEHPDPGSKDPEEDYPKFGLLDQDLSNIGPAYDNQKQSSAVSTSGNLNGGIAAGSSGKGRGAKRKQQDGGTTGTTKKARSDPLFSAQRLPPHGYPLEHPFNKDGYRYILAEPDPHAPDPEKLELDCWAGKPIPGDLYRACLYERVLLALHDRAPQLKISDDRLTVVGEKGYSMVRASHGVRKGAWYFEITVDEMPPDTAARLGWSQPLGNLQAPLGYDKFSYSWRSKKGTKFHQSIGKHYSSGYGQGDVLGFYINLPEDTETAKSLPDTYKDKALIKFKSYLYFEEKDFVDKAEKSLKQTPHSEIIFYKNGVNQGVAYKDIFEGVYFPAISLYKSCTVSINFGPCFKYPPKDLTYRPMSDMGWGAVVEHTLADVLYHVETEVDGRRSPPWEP

| efflux ratio at 90 min, 10 μM ([1]; Caco-2) | Papp at 90 min, 10 μM ([1]; Replicate 1, Direction A‐B) [×10⁻⁶ cm/s] | Papp at 90 min, 10 μM ([1]; Replicate 1, Direction B‐A) [×10⁻⁶ cm/s] | Papp at 90 min, 10 μM ([1]; Replicate 2, Direction A‐B) [×10⁻⁶ cm/s] | Papp at 90 min, 10 μM ([1]; Replicate 2, Direction B‐A) [×10⁻⁶ cm/s] | Papp(B−A)/Papp(A−B) (efflux ratio) (Caco‐2 cells) | IC50 (MLL4 complex) [µM] | IC50 (SETD2) [µM] | SMILES | IC50 (PRDM9) [µM] |
| --- | --- | --- | --- | --- | --- | --- | --- | --- | --- |
| 62.9 | 0.3 | 18.1 | 0.2 | 17.5 |  |  |  | CC[C@H]1OC(=O)[C@H](C)[C@@H](O[C@H]2C[C@@](C)(OC)[C@@H](O)[C@H](C)O2)[C@H](C)[C@@H](O[C@@H]2O[C@H](C)C[C@H](N(C)C)[C@H]2O)[C@](C)(O)C[C@@H](C)C(=O)[C@H](C)[C@@H](O)[C@]1(C)O [Erythromycin] |  |
|  | 33.7 | 34.7 | 31.4 | 33.3 | 1.1 |  |  | COCCc1ccc(OCC(O)CNC(C)C)cc1 (stereo not shown) [Metoprolol] |  |
|  |  |  |  |  |  | 2.11 | 7.39 | Nc1ncnc2c1ncn2[C@@H]1O[C@H](CSCC[C@H](N)C(=O)O)[C@@H](O)[C@H]1O [SAH, S‐(5′‐adenosyl)‐ʟ‐homocysteine] |  |
|  |  |  |  |  |  |  |  | CN1C(=O)[C@@]23C[C@]4([C@]56C[C@@]78SS[C@@](CO)(C(=O)N7[C@H]5Nc5ccccc56)N(C)C8=O)c5ccccc5N[C@@H]4N2C(=O)[C@]1(CO)SS3 [chaetocin] | 3.98 |
